OC[C@H]1O[C@@H](Oc2ccc(O)cc2)[C@H](O)[C@@H](O)[C@@H]1O
solubility (mole fraction)
Conditions | 283.15 K | 288.15 K | 293.15 K | 298.15 K | 303.15 K | 308.15 K | 313.15 K | 318.15 K | 323.15 K
in 2-butanone | 0.000188 | 0.000212 | 0.000243 | 0.00026 | 0.000297 | 0.000346 | 0.000418 | 0.00045 | 0.000524
in acetone | 0.000686 | 0.00071 | 0.000773 | 0.000799 | 0.000867 | 0.00101 | 0.00118 | 0.00127 | 0.00143
in acetonitrile | 8.17e-05 | 9.3e-05 | 0.000124 | 0.000149 | 0.000163 | 0.000211 | 0.000236 | 0.000318 | 0.000362
in ethanol | 0.00263 | 0.00268 | 0.0029 | 0.00309 | 0.00353 | 0.00419 | 0.00477 | 0.00551 | 0.0059
in ethyl acetate | 8.03e-05 | 8.14e-05 | 8.6e-05 | 9.09e-05 | 9.62e-05 | 0.000104 | 0.000112 | 0.000124 | 0.000156
in ethylene glycol | 0.0471 | 0.0486 | 0.0507 | 0.0527 | 0.0549 | 0.0572 | 0.0601 | 0.0631 | 0.0666
in isobutanol | 0.000225 | 0.000279 | 0.000303 | 0.000394 | 0.000454 | 0.000572 | 0.000668 | 0.000911 | 0.00104
in isopropanol | 0.000727 | 0.000858 | 0.0009 | 0.00108 | 0.00125 | 0.0016 | 0.00191 | 0.00216 | 0.00261
in methanol | 0.0113 | 0.0117 | 0.0123 | 0.0132 | 0.0143 | 0.016 | 0.0176 | 0.0191 | 0.0221
in methyl acetate | 0.000112 | 0.000129 | 0.00014 | 0.000154 | 0.000185 | 0.000239 | 0.000277 | 0.000353 | 0.00041
in n-butanol | 0.000376 | 0.000499 | 0.000566 | 0.000699 | 0.00075 | 0.001 | 0.00115 | 0.00131 | 0.00144
in n-propanol | 0.000764 | 0.000889 | 0.00103 | 0.00115 | 0.00128 | 0.00155 | 0.00181 | 0.00207 | 0.0023
